Common to all, as to type: in vivo
The test system of experiment [1] is Kochia (Kochia scoparia). Kind of experiment: Test A preemergence. To be noted: Bassia scoparia, pre-emergence, 240 h, preemergence, read-out: Plant response rating, Kochia; for pest or weed control at 125 g/ha: 125 g ai/ha, visual rating after approx. 10 d, 0 to 100 scale where 0 is no effect and 100 is complete control; for pest or weed control at 500 g/ha: 500 g ai/ha, 0 to 100 scale, 0 = no effect, 100 = complete control. The method, boiled down: (§1)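 Seeded soil received test chemicals as a preemergence directed spray, and seedlings at one to two leaves, 2–10 cm tall, received them postemergence, in a non-phytotoxic, surfactant-containing solvent mixture. Pots were held in a greenhouse for approximately 10 d, then rated for injury from 0, no effect, to 100, complete control.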

Experiment [2] relates to barnyardgrass (Echinochloa crus-galli). Kind of experiment: Test A preemergence. The settings on record: Echinochloa crus-galli, pre-emergence, 240 h, preemergence, read-out: Plant response rating, Barnyardgrass; for pest or weed control at 125 g/ha: 125 g ai/ha, visual rating after approx. 10 d, 0 to 100 scale where 0 is no effect and 100 is complete control; for pest or weed control at 500 g/ha: 500 g ai/ha, 0 to 100 scale, 0 = no effect, 100 = complete control. The method, boiled down:
as §1

Experiment [3] deals with giant foxtail (Setaria faberii). Kind of experiment: Test A preemergence. To be noted: Setaria faberi, pre-emergence, 240 h, preemergence, read-out: Plant response rating, Foxtail, Giant; for pest or weed control at 125 g/ha: 125 g ai/ha, visual rating after approx. 10 d, 0 to 100 scale where 0 is no effect and 100 is complete control; for pest or weed control at 500 g/ha: 500 g ai/ha, 0 to 100 scale, 0 = no effect, 100 = complete control. Summed up: as §1

The test system of experiment [4] is pigweed (Amaranthus retroflexus). Kind of experiment: Test A preemergence. The settings on record: Amaranthus retroflexus, pre-emergence, 240 h, preemergence, read-out: Plant response rating, Pigweed; for pest or weed control at 125 g/ha: 125 g ai/ha, visual rating after approx. 10 d, 0 to 100 scale where 0 is no effect and 100 is complete control; for pest or weed control at 500 g/ha: 500 g ai/ha, 0 to 100 scale, 0 = no effect, 100 = complete control.

Experiment [5] concerns ragweed (common ragweed, Ambrosia elatior). Kind of experiment: Test A preemergence. The settings on record: Ambrosia artemisiifolia, pre-emergence, 240 h, preemergence, read-out: Plant response rating, Ragweed; for pest or weed control at 125 g/ha: 125 g ai/ha, visual rating after approx. 10 d, 0 to 100 scale where 0 is no effect and 100 is complete control; for pest or weed control at 500 g/ha: 500 g ai/ha, 0 to 100 scale, 0 = no effect, 100 = complete control. The method, boiled down: as §1

Experiment [6] has as its system ryegrass, Italian (Italian ryegrass, Lolium multiflorum). Kind of experiment: Test A preemergence. The settings on record: Lolium multiflorum, pre-emergence, 240 h, preemergence, read-out: Plant response rating, Ryegrass, Italian; for pest or weed control at 125 g/ha: 125 g ai/ha, visual rating after approx. 10 d, 0 to 100 scale where 0 is no effect and 100 is complete control; for pest or weed control at 500 g/ha: 500 g ai/ha, 0 to 100 scale, 0 = no effect, 100 = complete control. The method, boiled down: as §1

Experiment [7] concerns Galium (catchweed bedstraw, Galium aparine). Kind of experiment: Test A postemergence. To be noted: Galium, post-emergence, 240 h, 125 g ai/ha, postemergence; visual injury after approximately 10 d; 0 to 100 scale (0 no effect, 100 complete control); read-out: Plant response rating, Galium. The method, boiled down: as §1
The test system of experiment [8] is Kochia (Kochia scoparia). Kind of experiment: Test A postemergence. The settings on record: Bassia scoparia, post-emergence, 240 h, 125 g ai/ha, postemergence; visual injury after approximately 10 d; 0 to 100 scale (0 no effect, 100 complete control); read-out: Plant response rating, Kochia. The method, boiled down: as §1
The test system of experiment [9] is barnyardgrass (Echinochloa crus-galli). Kind of experiment: Test A postemergence. The settings on record: Echinochloa crus-galli, post-emergence, 240 h, 125 g ai/ha, postemergence; visual injury after approximately 10 d; 0 to 100 scale (0 no effect, 100 complete control); read-out: Plant response rating, Barnyardgrass. The method, boiled down: as §1
The test system of experiment [10] is blackgrass (Alopecurus myosuroides). Kind of experiment: Test A postemergence. The settings on record: Alopecurus myosuroides, post-emergence, 240 h, 125 g ai/ha, postemergence; visual injury after approximately 10 d; 0 to 100 scale (0 no effect, 100 complete control); read-out: Plant response rating, Blackgrass. Summed up: as §1
For another experiment, the system named is corn (Zea mays). Kind of experiment: Test A postemergence. To be noted: Zea mays, post-emergence, 240 h, 125 g ai/ha, postemergence; visual injury after approximately 10 d; 0 to 100 scale (0 no effect, 100 complete control). Summed up:
as §1

For experiment [11], the system named is giant foxtail (Setaria faberii). Kind of experiment: Test A postemergence. The settings on record: Setaria faberi, post-emergence, 240 h, 125 g ai/ha, postemergence; visual injury after approximately 10 d; 0 to 100 scale (0 no effect, 100 complete control); read-out: Plant response rating, Foxtail, Giant. Summed up: as §1
In experiment [12] the test system is pigweed (Amaranthus retroflexus). Kind of experiment: Test A postemergence. To be noted: Amaranthus retroflexus, post-emergence, 240 h, 125 g ai/ha, postemergence; visual injury after approximately 10 d; 0 to 100 scale (0 no effect, 100 complete control); read-out: Plant response rating, Pigweed. Summed up: as §1
Experiment [13] relates to ragweed (common ragweed, Ambrosia elatior). Kind of experiment: Test A postemergence. The settings on record: Ambrosia artemisiifolia, post-emergence, 240 h, 125 g ai/ha, postemergence; visual injury after approximately 10 d; 0 to 100 scale (0 no effect, 100 complete control); read-out: Plant response rating, Ragweed. The method, boiled down:
as §1

Experiment [14] has as its system ryegrass, Italian (Italian ryegrass, Lolium multiflorum). Kind of experiment: Test A postemergence. To be noted: Lolium multiflorum, post-emergence, 240 h, 125 g ai/ha, postemergence; visual injury after approximately 10 d; 0 to 100 scale (0 no effect, 100 complete control); read-out: Plant response rating, Ryegrass, Italian. The method, boiled down: as §1
Experiment [15] relates to wheat (Triticum aestivum). Kind of experiment: Test A postemergence. The settings on record: Triticum aestivum, post-emergence, 240 h, 125 g ai/ha, postemergence; visual injury after approximately 10 d; 0 to 100 scale (0 no effect, 100 complete control); read-out: Plant response rating, Wheat. Summed up: as §1

`O=C1NC[C@H](c2cccc(C(F)(F)F)c2)[C@H]1C(=O)Nc1ccccc1C1CC1` [Compound 748]: the pest or weed control at 125 g/ha turned out to be 0% with Kochia (Kochia scoparia) [1]; 0% in experiment [2]; 40% in experiment [3]; 0% in experiment [4]; 0% in experiment [5]; 0% in [6]. The pest or weed control at 125 g/ha in experiment [7] came to 0%; in the experiment with Kochia (Kochia scoparia) [8], 0%; in [9], 40%; in experiment [10], 0%; in [11], 0%; in experiment [12] it was 0%. The pest or weed control at 125 g/ha in experiment [13] and in experiment [14] was 0% in each case. In addition, the pest or weed control at 500 g/ha turned out to be 0% in the experiment on Kochia (Kochia scoparia) [1]; 30% in experiment [2]; 90% in [3]; 0% in experiment [4]; 0% in experiment [5]; 0% in [6]. Besides, the Corn plant response rating (crop injury, 0 = no effect, 100 = complete kill) at 125 g/ha in the experiment with corn (Zea mays) turned out to be 0%. Moreover, the plant injury at 125 g/ha in [15] turned out to be 0%.
Regarding `O=C1NC[C@H](c2cccc3c2OC(F)(F)O3)[C@H]1C(=O)Nc1ccccc1F` [Compound 754], the pest or weed control at 125 g/ha turned out to be 0% with Kochia (Kochia scoparia) [1]; 80% in experiment [2]; 70% in experiment [3]; 0% in experiment [4]; 0% in experiment [5]; 0% in [6]. Besides, the pest or weed control at 125 g/ha in experiment [7] is 0%; in the experiment with Kochia (Kochia scoparia) [8] it was 0%; in experiment [9], 60%; in experiment [10], 0%; in experiment [11], 60%; in experiment [12] it was 0%. Also, the pest or weed control at 125 g/ha in experiment [13] and in experiment [14] was 0% in each case. The pest or weed control at 500 g/ha came to 0% with Kochia (Kochia scoparia) [1]; 100% in experiment [2]; 90% in experiment [3]; 0% in experiment [4]; 0% in experiment [5]; 0% in experiment [6]. Moreover, in the experiment with corn (Zea mays), the Corn plant response rating (crop injury, 0 = no effect, 100 = complete kill) at 125 g/ha stood at 0%. Moreover, the plant injury at 125 g/ha in experiment [15] is 0%.
